Experimental findings from PubChem BioAssay AID434987 (Southern Research Specialized Biocontainment Screening …, 2010) are described below.

In this test the test system is M. tuberculosis H37Rv growth inhibition with meropenem. Description: dose response, H37Rv, with and without meropenem (AID 434987).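 Further: growth over 7 days at 37 °C before Alamar Blue read on day 9.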
Setting [1] is: M. tuberculosis H37Rv growth inhibition, measured here: IC50 without meropenem.
Where [2] appears, read: M. tuberculosis H37Rv growth inhibition, measured here: IC90 without meropenem.
[3] abbreviates: measured here: IC90 with meropenem.

Active and inactive are the calls of the source. How the calls were made is not given here.

As for `Cc1cccnc1NC(=O)c1cc2ccccc2oc1=O`, the IC50 is 46.7 µM (inactive). For the same compound, the IC50 under setting [1] was > 100 µM. In addition, under setting [2], the IC90 was > 100 µM. Under setting [3], the IC90 is > 100 µM.

Turning to `COc1ccccc1C(=O)Nc1ccc2c3c(cccc13)CC2`, the IC50 is 8.08 µM. The same compound displayed an IC50 under setting [1] of 35.9 µM. For the same compound, the IC90 under setting [2] was > 50 µM. The IC90 under setting [3] was > 100 µM.

As to `CCN(Cc1ccncc1)C(=O)C(CO)c1ccccc1` (stereo not drawn), the IC50 is > 100 µM (inactive). Also, the 50% inhibitory concentration (IC50) under setting [1] is > 100 µM. Moreover, the IC90 under setting [2] is > 100 µM. Under setting [3], the IC90 was > 100 µM.

As to `O=C(NCC(c1ccco1)N1CCc2ccccc21)c1ccc([N+](=O)[O-])cc1` (stereo not drawn), the IC50 is > 100 µM (inactive). The concentration for half-maximal inhibition (IC50) under setting [1] was > 100 µM. Further, under setting [2], the IC90 is > 100 µM. Further, the IC90 under setting [3] is > 100 µM.

For `CN(C)c1ccc(/C=N/NC(=O)c2cc(-c3ccc4c(c3)OCO4)n[nH]2)cc1`, the IC50 was > 100 µM (inactive). In addition, the IC50 under setting [1] was > 100 µM. Besides, the IC90 under setting [2] is > 100 µM. The IC90 under setting [3] was > 100 µM.

Regarding `CCc1ccc2oc(-c3cc(N)cc(C)c3O)nc2c1`, the IC50 was 76.1 µM (inactive). Moreover, the IC50 under setting [1] was found to be 93.2 µM. Further, the IC90 under setting [2] was > 100 µM. The IC90 under setting [3] is > 100 µM.

Regarding `Cc1cccc(NC(=O)Cn2cnc3c(oc4ccccc43)c2=O)c1C`, the IC50 was > 100 µM (inactive). Moreover, the IC50 under setting [1] was > 100 µM. The IC90 under setting [2] is > 100 µM. In addition, the IC90 under setting [3] was > 100 µM.

As to `COc1ccc(CN(CCC#N)C(=S)NC(=O)c2ccccc2)cc1`, the IC50 was 10.6 µM. The same compound returned an IC50 under setting [1] of 79.1 µM. The IC90 under setting [2] is > 100 µM. The IC90 under setting [3] was > 100 µM.

On to `COc1ccc(C(=O)/C=C/c2ccc(O)cc2)c(O)c1CC=C(C)C`, for which the IC50 was 54.3 µM (inactive). This compound also had an IC50 under setting [1] of 64.8 µM. Also, under setting [2], the IC90 turned out to be 98.4 µM. Under setting [3], this compound registered an IC90 of 75.1 µM.

Regarding `COc1ccccc1/C=C/C(=O)NCC(=O)N/N=C/c1cc(Br)ccc1OC`, the 50% inhibitory concentration (IC50) is 24 µM. In addition, the IC50 under setting [1] is > 100 µM. In addition, under setting [2], the IC90 was > 100 µM. In addition, the IC90 under setting [3] was > 100 µM.

In the case of `COCCNC(=S)N/N=C(\C)c1cccc(OC)c1`, the IC50 is 17.8 µM. Moreover, the IC50 under setting [1] came to 47.1 µM. Moreover, the IC90 under setting [2] was > 100 µM. Besides, the IC90 under setting [3] is > 100 µM.

On to `CC1(C)Cc2c(C#N)c(SCc3ccccc3)nc(N3CCOCC3)c2CO1`, for which the IC50 is > 100 µM (inactive). For the same compound, the IC50 under setting [1] was > 100 µM. For the same compound, the IC90 under setting [2] was > 100 µM. In addition, under setting [3], the IC90 is > 100 µM.

With `O=C(Nc1cccc(C(F)(F)F)c1)N1CCC(c2nc(-c3ccc(F)cc3)no2)CC1`, the IC50 is > 100 µM (inactive). Besides, the IC50 under setting [1] is > 100 µM. Under setting [2], the IC90 was > 100 µM. The IC90 under setting [3] was > 100 µM.

For `Cc1c(OCc2ccc(C(=O)O)cc2)ccc2c(-c3ccccc3)cc(=O)oc12`, the IC50 was 1.42 µM. Besides, the IC50 under setting [1] stood at 46.2 µM. Under setting [2], the IC90 turned out to be 96.7 µM. For the same compound, the IC90 under setting [3] was determined as 2.09 µM.

For `CCOC(=O)c1nn(-c2ccc(F)cc2)c2nc(Nc3ccccc3)cc(=O)n12`, the IC50 is > 100 µM (inactive). For the same compound, the IC50 under setting [1] was > 100 µM. Under setting [2], the IC90 is > 100 µM. In addition, the IC90 under setting [3] was > 100 µM.

Take `COC(=O)c1cc(C)[nH]c2c(C)cc3nc4ccccc4c3c12`: the IC50 is > 100 µM (inactive). For the same compound, the IC50 under setting [1] was > 100 µM. For the same compound, the 90% effect concentration (IC90) under setting [2] is > 100 µM. In addition, the IC90 under setting [3] is > 100 µM.

Consider `CCc1sc2nc(SCC(=O)Nc3cc(C)on3)n(-c3cccc(OC)c3)c(=O)c2c1C`, for which the IC50 was > 100 µM (inactive). Further, the IC50 under setting [1] was > 100 µM. Also, the IC90 under setting [2] was > 100 µM. Under setting [3], the IC90 was > 100 µM.

For the compound `CCCN1C(=O)S/C(=C/c2ccc(N3CCOCC3)o2)C1=O`, the IC50 was < 0.2 µM. The compound further came in with an IC50 under setting [1] of 34.9 µM. Further, the IC90 under setting [2] was > 100 µM. For the same compound, the IC90 under setting [3] is > 100 µM.

In the case of `CCOc1ccc(-c2cnc3n2CCC3)cc1`, the IC50 was 35 µM. Also, under setting [1], the IC50 is > 100 µM. Besides, under setting [2], the IC90 is > 100 µM. In addition, under setting [3], the IC90 was > 100 µM.

Consider `CCO[C@H]1OC(C(=O)NCc2nc3ccccc3[nH]2)=C[C@@H](c2ccc(C(F)(F)F)cc2)[C@@H]1CCCO`, for which the IC50 is > 100 µM (inactive). For the same compound, the IC50 under setting [1] is > 100 µM. In addition, under setting [2], the IC90 was > 100 µM. The IC90 under setting [3] is > 100 µM.

For the compound `CCOC(=O)c1sc(NC(=O)CN2CCN(c3ccc(OC)cc3)CC2)nc1C`, the IC50 is 68.2 µM (inactive). This compound yielded an IC50 under setting [1] of 98.9 µM. Besides, the IC90 under setting [2] was > 100 µM. Besides, the IC90 under setting [3] is > 100 µM.

For the compound `Cc1nnnn1/C(=C\c1ccccc1)C(=O)OCC(=O)NC1CCCCC1`, the IC50 was 8.62 µM (inactive). For the same compound, the IC50 under setting [1] turned out to be 18.1 µM. The IC90 under setting [2] was determined as 27 µM. The same compound had an IC90 under setting [3] of 17.6 µM.
